According to patent publication US20220280405A1, “NOVEL COMPOUNDS FOR SKIN LIGHTENING” (Conopco, Inc. , d/b/a UNILEVER, priority 2019, published 2022):

Test system: Melanoderm human tissue (MEL-300-B, Mattek Corp.)
Assay: Melanoderm assay (melanin quantitation)
Type: cell-based
Conditions: for Melanin (μg/μg protein): 12 d dosing, melanin normalized to protein, mean +/− standard deviation, n = 3
Method: Control compounds consisted of a negative control (ultrapure water), vehicle control (DMSO in ultrapure water—final concentration of 0.1%) and positive control (2% kojic acid in ultrapure water—final concentration of 700 uM). Test compounds where prepared in DMSO at 10 mM concentrations and diluted with EPI-100-LLMM media (Mattek Corp.) to a final concentration of 10 uM. Melanoderm human tissue (MEL-300-B, Mattek Corp.) was equilibrated with EPI-100-NMM media for 24 h, followed by equilibration with EPI-100-LLMM media for 48 h prior to treatment with test compounds and controls. Dosing and re-feeding of melanoderms with controls and test compounds continued for a total of 12 d following standard protocols and the melanoderms collected for melanin quantitation, viability analysis and macroscopic/microscopic imaging analysis. For melanin quantitation, tissues were suspended in PBS buffer (5 ml) for 5 min, removed from the PBS and washed/rinsed with additional PBS (2 ml). Tissues were treated with 1% sodium bicarbonate solution (300 ul) for 30 min, followed by removal of the sodium bicarbonate solution and washed/rinsed with PBS solution (2×2 ml). Tissues were suspended in Solvable reagent (500 ul) and incubated at 95° C. for 24 h along with melanin standard samples (prepared by suspending melanin (cat # M8631, Sigma-Aldrich) in Solvable reagent to generate melanin standards at 0, 2.5, 5, 10, 25, 50 and 100 ug). All incubated samples were centrifuged at 13000 rpm for 5 min and the optical density of the supernatant was read/determined at 490 nm. The amount of melanin (ug) from each tissue sample was determined from the melanin standard samples calibration curve. Protein concentration of tissue samples was determined using the BCA protein assay kit (Pierce) and melanin content was normalized and expressed as melanin (ug)/protein (ug) (Table 1). Tissue viability as a result of test compound dosing/feeding relative to negative and vehicle controls was determined using the WST-1 reagent kit (cat # 05015944001, Roche). […]

Compound	melanin content / skin lightening effect (in words) (melanoderm treatment, 10 uM, compared to vehicle control)	Melanin (μg/μg protein) (test compound 10 uM)	Melanin (μg/μg protein) (positive control 700 μM)
CC(C)Oc1ccc(C(NC2CCOCC2)C2CCCCC2)cc1 (stereo not drawn) [Compound of example 1, N-(cyclohexyl(4-isopropoxyphenyl)methyl)tetrahydro-2H-pyran-4-amine]	reduced melanin content	0.177 +/− 0.019 μg/μg protein	–
O=c1cc(CO)occ1O [Kojic acid, reference compound]	–	–	0.128 +/− 0.004 μg/μg protein
